Measurements taken from PubChem BioAssay (NCI).
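Test compounds were applied to cells in 96-well plates for 48 hours at 5 doses. Here, GI50 denotes the concentration required for 50% inhibition of growth. At the TGI there is no net growth.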

How the values were obtained:
Test in all cases: growth of human tumour cells (NCI), 48 h
SR leukemia = test system: SR leukemia
NCI-H23 lung = test system: NCI-H23 lung
RXF 393 renal = test system: RXF 393 renal
HCC-2998 colon = test system: HCC-2998 colon
DU-145 prostate = test system: DU-145 prostate
SF-268 CNS = test system: SF-268 CNS
UACC-62 melanoma = test system: UACC-62 melanoma
UACC-257 melanoma = test system: UACC-257 melanoma
PC-3 prostate = test system: PC-3 prostate
IGROV1 ovarian = test system: IGROV1 ovarian
OVCAR-5 ovarian = test system: OVCAR-5 ovarian
HCT-116 colon = test system: HCT-116 colon
SK-OV-3 ovarian = test system: SK-OV-3 ovarian
SF-539 CNS = test system: SF-539 CNS
SNB-75 CNS = test system: SNB-75 CNS
SK-MEL-28 melanoma = test system: SK-MEL-28 melanoma
SNB-19 CNS = test system: SNB-19 CNS
BT-549 breast = test system: BT-549 breast
MOLT-4 leukemia = test system: MOLT-4 leukemia
U251 CNS = test system: U251 CNS
NCI/ADR-RES ovarian = test system: NCI/ADR-RES ovarian
SK-MEL-2 melanoma = test system: SK-MEL-2 melanoma
A549 NSCLC = test system: A549 NSCLC
HT29 colon = test system: HT29 colon
A498 renal = test system: A498 renal
LOX IMVI melanoma = test system: LOX IMVI melanoma
HOP-92 NSCLC = test system: HOP-92 NSCLC
HCT-15 colon = test system: HCT-15 colon
CAKI-1 renal = test system: CAKI-1 renal
ACHN renal = test system: ACHN renal
786-0 renal = test system: 786-0 renal
OVCAR-8 ovarian = test system: OVCAR-8 ovarian
SN12C renal = test system: SN12C renal
T-47D breast = test system: T-47D breast
TK-10 renal = test system: TK-10 renal
KM12 colon = test system: KM12 colon
MDA-MB-231 breast = test system: MDA-MB-231 breast
NCI-H460 lung = test system: NCI-H460 lung
K-562 leukemia = test system: K-562 leukemia
M14 melanoma = test system: M14 melanoma
MALME-3M melanoma = test system: MALME-3M melanoma
UO-31 renal = test system: UO-31 renal
OVCAR-4 ovarian = test system: OVCAR-4 ovarian
RPMI-8226 leukemia = test system: RPMI-8226 leukemia
HL-60(TB) leukemia = test system: HL-60(TB) leukemia
MCF7 breast = test system: MCF7 breast
MDA-MB-435 = test system: MDA-MB-435
HS 578T breast = test system: HS 578T breast
NCI-H226 lung = test system: NCI-H226 lung
SF-295 CNS = test system: SF-295 CNS
NCI-H522 lung = test system: NCI-H522 lung
HOP-62 NSCLC = test system: HOP-62 NSCLC
EKVX NSCLC = test system: EKVX NSCLC
COLO 205 colon = test system: COLO 205 colon
SW-620 colon = test system: SW-620 colon
CCRF-CEM leukemia = test system: CCRF-CEM leukemia

## CS(=O)(=O)Nc1cc(-c2ccc3ncc(C#N)c(NCc4ccccc4O)c3c2)cnc1Cl
SR leukemia
  GI50: 231 nM
  TGI: > 100000 nM
NCI-H23 lung
  GI50: 600 nM
  TGI: 15800 nM
RXF 393 renal
  GI50: 212 nM
  TGI: 1280 nM
HCC-2998 colon
  GI50: 745 nM
  TGI: 6510 nM
DU-145 prostate
  GI50: 613 nM
  TGI: 12400 nM
SF-268 CNS
  GI50: 248 nM
  TGI: 3120 nM
UACC-62 melanoma
  GI50: 282 nM
  TGI: 2580 nM
UACC-257 melanoma
  GI50: 736 nM
  TGI: 7060 nM
PC-3 prostate
  GI50: 531 nM
  TGI: 13200 nM
IGROV1 ovarian
  GI50: 229 nM
  TGI: 1290 nM
OVCAR-5 ovarian
  GI50: 1330 nM
  TGI: 19000 nM
HCT-116 colon
  GI50: 408 nM
  TGI: 2960 nM
SK-OV-3 ovarian
  GI50: 612 nM
  TGI: 3680 nM
SF-539 CNS
  GI50: 400 nM
  TGI: 3200 nM
SNB-75 CNS
  GI50: < 37.8 nM
  TGI: 743 nM
SK-MEL-28 melanoma
  GI50: 387 nM
  TGI: 7380 nM
SNB-19 CNS
  GI50: 507 nM
  TGI: 15100 nM
BT-549 breast
  GI50: 167 nM
  TGI: 1340 nM
MOLT-4 leukemia
  GI50: 418 nM
  TGI: > 100000 nM
U251 CNS
  GI50: 300 nM
NCI/ADR-RES ovarian
  GI50: 3090 nM
  TGI: > 100000 nM
SK-MEL-2 melanoma
  GI50: 175 nM
  TGI: 554 nM
A549 NSCLC
  GI50: 1960 nM
  TGI: 13000 nM
HT29 colon
  GI50: 1090 nM
  TGI: 8630 nM
A498 renal
  GI50: 227 nM
  TGI: 835 nM
LOX IMVI melanoma
  GI50: 397 nM
  TGI: 2180 nM
HOP-92 NSCLC
  GI50: 117 nM
  TGI: 725 nM
HCT-15 colon
  GI50: 516 nM
  TGI: 12000 nM
CAKI-1 renal
  GI50: 325 nM
  TGI: 2910 nM
ACHN renal
  GI50: 1700 nM
  TGI: > 63000 nM
786-0 renal
  GI50: 693 nM
  TGI: > 100000 nM
OVCAR-8 ovarian
  GI50: 718 nM
  TGI: 16800 nM
SN12C renal
  GI50: 450 nM
  TGI: > 65000 nM
T-47D breast
  GI50: 122 nM
  TGI: 4970 nM
TK-10 renal
  GI50: 375 nM
  TGI: 3420 nM
KM12 colon
  GI50: 652 nM
  TGI: 7060 nM
MDA-MB-231 breast
  GI50: 585 nM
  TGI: 4040 nM
NCI-H460 lung
  GI50: 1420 nM
  TGI: 18400 nM
K-562 leukemia
  GI50: 465 nM
  TGI: > 100000 nM
M14 melanoma
  GI50: 532 nM
  TGI: 10900 nM
MALME-3M melanoma
  GI50: 184 nM
  TGI: 1150 nM
UO-31 renal
  GI50: 417 nM
  TGI: > 25900 nM
OVCAR-4 ovarian
  GI50: 468 nM
  TGI: 6410 nM
RPMI-8226 leukemia
  GI50: 609 nM
  TGI: 3390 nM
HL-60(TB) leukemia
  GI50: 808 nM
  TGI: 21700 nM
MCF7 breast
  GI50: 288 nM
  TGI: 9270 nM
MDA-MB-435
  GI50: 539 nM
  TGI: 9850 nM
HS 578T breast
  GI50: 118 nM
  TGI: 612 nM
NCI-H226 lung
  GI50: 908 nM
  TGI: 32200 nM
SF-295 CNS
  GI50: 681 nM
  TGI: 5190 nM
NCI-H522 lung
  GI50: 460 nM
  TGI: 6260 nM
HOP-62 NSCLC
  GI50: 480 nM
  TGI: 13300 nM
EKVX NSCLC
  GI50: 1200 nM
  TGI: 7100 nM
COLO 205 colon
  GI50: 674 nM
  TGI: 2260 nM
SW-620 colon
  GI50: 470 nM
  TGI: 6960 nM
CCRF-CEM leukemia
  GI50: 243 nM
  TGI: > 100000 nM
